According to patent publication US7176293B1, “Compositions and methods to enhance sensitivity of cancer cells to mitotic stress” (The Wistar Institute of Anatomy and Biology, priority 1999, dated 2007):

Legend:
[1] = test system: DLD1 cells; experiment: Long term response to mitotic stress (colony formation); type: cell-based, human; details: 4 hour exposure 12 hours after release, colonies over three weeks
Description: Cells synchronized by a sequential thymidine-aphidicolin block were either not exposed to mitotic stress or exposed to 0.5 μg/ml nocodazole or the TAXOL™ drug for a 4 hour period starting 12 hours after aphidicolin release or release from the G1-S block. The short term response to mitotic stress was evaluated by examining the cell cycle profile at the time of nocodazole removal, 24 or 48 hours later. At the indicated time points, the cells were recovered from the tissue culture plates with trypsin, fixed in 70% ethanol for 10 minutes and incubated with propidium iodide and DNase-free RNase (Roche) in PBS containing 1% fetal bovine serum and 2% Tween-20. The nuclear morphology of the cells was visualized by fluorescence microscopy. The DNA content of the cell population was determined by flow cytometry.
To evaluate the long term response of the cells to survive exposure to mitotic stress, at the time of nocodazole removal, the cells were replated at a density of 200 cells per 100 mm diameter tissue culture dish. The cells were allowed to replicate and colonies were counted 3 weeks later.
To the long term response of the cells to survive exposure to mitotic stress, synchronized DLD1-neo and DLD1-chfr cells were transiently exposed to nocodazole or the TAXOL™ drug, as described above (e.g., exposed to nocodazole or the TAXOL™ drug 12 hours after release from the G1-S block for a 4 hour period). At the time of nocodazole removal, the cells were replated at a density of 200 cells per 100 mm diameter tissue culture dish and then allowed to form colonies over a three-week period.

[2] = test system: eight human cancer cell lines (SW480, DLD1, HT29, HCT116, SAOS2, U20S, IMR5 and NGP); experiment: Mitotic index of unsynchronized human cancer cell lines treated with nocodazole; type: cell-based; details: 16 hours after nocodazole
Description: All cancer cells were grown in DMEM supplemented with glutamine, penicillin, streptomycin and 10% fetal bovine serum (Life Sciences). Normal human epidermal keratinocytes and osteoblasts were grown in KGM2 and OGM media, respectively (Clonetics). The cells were examined either non-synchronized or synchronized. For synchronization, the cells were treated with 2 mM thymidine for 16 hours, then with 0.25 mM thymidine/deoxycytidine for 9 hours, and then with 0.5 μg/ml aphidicolin for 20–24 hours. The cells were washed three times with PBS between each step [Janss et al., 1998, Exp. Cell Res., 243:29–38]. To induce mitotic stress, synchronized or non-synchronized cells were exposed to 0.5 μg/ml nocodazole, 5 μM of the TAXOL™ drug or 0.5 μg/ml colcemid. Cells were grown on 8-well culture slides coated with human fibronectin (Becton Dickinson) and were examined as either non-synchronized or synchronized cells. […] The slides were sealed with coverslips using Fluoromount-G (Upstate Biotechnology) and visualized with a fluorescence microscope (Leica). […] The cells were scored for Mitotic Index. […]

[3] = test system: DLD1 cells; experiment: Centrosome staining of synchronized DLD1-neo and DLD1-chfr cells; type: cell-based, human; details: nocodazole added 12 hours after aphidicolin release, 14 hour time point
Description: Cells were grown on 8-well culture slides coated with human fibronectin (Becton Dickinson) and were examined as either non-synchronized or synchronized cells. The cells were prepared for microscopy by washing them three times with KM buffer (10 mM MES, pH 6.2, 10 mM NaCl, 1.5 mM MgCl2, 2.5% glycerol), fixing with 1% paraformaldehyde in 0.5×KM buffer for 15 minutes, washing once with 0.2% Triton X-100 in phosphate buffer saline (PBS) for 20 minutes and three times with PBS. For centrosome staining, the cells were incubated for 1 hour with a 1:500 dilution of autoimmune serum Ab598 in PBS, washed three times with PBS, incubated with a Texas Red-conjugated anti-human secondary antibody (Vector Labs) diluted 1:200 in PBS and washed again three times with PBS. For DNA staining, the cells were incubated with DAP1 ([…] in PBS). The slides were sealed with coverslips using Fluoromount-G (Upstate Biotechnology) and visualized with a fluorescence microscope (Leica). Separate images, acquired using filters corresponding to the excitation maxima of DAP1 and Texas Red, were merged with IRIX image tools (Silicon Graphics).
To correlate the timing of the Chfr effect with progress through the cell cycle, synchronized cells were stained with DAP1 to monitor chromosome condensation and with an antibody that recognizes the centrosomes. […]

[4] = test system: cyclin B/cdc2; experiment: Cdc2 kinase activity in synchronized DLD1 cells; type: cell-based, human; details: synchronized DLD1-neo and DLD1-chfr cells treated 12 hours after release from the G1-S block
Description: Whole cell extracts, prepared as described above, were incubated with anti-cyclin B antibody (Santa Cruz) coupled to protein G beads (Pharmacia) in CL buffer for 1 hour. The beads were washed three times with CL buffer and then twice with cdc2 kinase (CK) buffer (50 mM HEPES, pH 7.0, 10 mM MgCl2, 10 mM MnCl2, 200 mM NaCl). The beads were then incubated with 1 μg histone H1 (Upstate Biotechnology) in CK buffer supplemented with 30 mM DTT, 0.06 μM ATP and 1 μCi ^32P-γ-ATP for 20 minutes at 30° C., at which time the reactions were subjected to denaturing gel electrophoresis. Phosphorylation of histone H1 was detected by autoradiography.

[5] = target: T1, Chfr (Homo sapiens, UniProt Q96EP1); experiment: Ubiquitin-protein ligase assay in vitro; type: biochemical; details: crude bacterial lysates with E1, GST-Chfr, ubiquitin and ATP
T1 construct: Reactions were performed with full-length Chfr fused to GST; made in house; host or cells: E. coli (crude bacterial lysates)
T1 sequence (Q96EP1 1-664): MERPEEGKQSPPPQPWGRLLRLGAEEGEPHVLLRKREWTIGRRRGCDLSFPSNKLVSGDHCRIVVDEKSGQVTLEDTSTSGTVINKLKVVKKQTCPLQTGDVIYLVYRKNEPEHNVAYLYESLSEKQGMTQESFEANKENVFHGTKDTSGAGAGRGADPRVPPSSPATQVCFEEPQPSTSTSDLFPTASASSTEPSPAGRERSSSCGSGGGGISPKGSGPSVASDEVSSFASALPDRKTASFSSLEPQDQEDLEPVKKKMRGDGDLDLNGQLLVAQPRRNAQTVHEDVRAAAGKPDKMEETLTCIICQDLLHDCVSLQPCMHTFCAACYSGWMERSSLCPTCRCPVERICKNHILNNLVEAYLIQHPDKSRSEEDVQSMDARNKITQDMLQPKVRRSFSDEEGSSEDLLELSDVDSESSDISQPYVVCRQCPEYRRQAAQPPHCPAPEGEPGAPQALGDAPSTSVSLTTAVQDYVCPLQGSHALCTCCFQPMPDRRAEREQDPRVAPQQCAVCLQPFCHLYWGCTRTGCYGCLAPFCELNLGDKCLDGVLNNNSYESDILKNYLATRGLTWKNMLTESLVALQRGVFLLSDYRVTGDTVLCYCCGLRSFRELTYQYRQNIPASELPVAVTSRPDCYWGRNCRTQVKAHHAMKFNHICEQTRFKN
Description: Recombinant E. coli bacterial cells that have been genetically engineered to express the E1 ubiquitin-activating enzyme and the E2 ubiquitin-conjugating enzyme (either UbchD2 or Ubch8) and a […] comprised of glutathione S-transferase fused to the N-terminus of Chfr were lysed. The lysates were incubated in the presence of ubiquitin and ATP and the reaction allowed to proceed for 20 minutes at 30° C. GST-Chfr was captured on glutathione beads, eluted with SDS sample buffer, and resolved by SDS-PAGE. The SDS gel was immunoblotted with antibodies that recognize ubiquitin. Reactions were performed with full-length Chfr fused to GST and reactions were performed with Chfr lacking amino acid residues 1–280 of SEQ ID NO: 2, which contain the FHA domain.

Compound: CC(=O)O[C@H]1C(=O)[C@@]2(C)[C@H]([C@H](OC(=O)c3ccccc3)[C@]3(O)C[C@H](OC(=O)[C@H](O)[C@@H](NC(=O)c4ccccc4)c4ccccc4)C(C)=C1C3(C)C)[C@]1(OC(C)=O)CO[C@@H]1C[C@@H]2O [TAXOL™ drug]
- number of colony-forming units (CFUs) ([1]; DLD1-chfr cells): unaffected
- number of colony-forming units (CFUs) ([1]; DLD1-neo cells): decrease

Compound: COC(=O)Nc1nc2ccc(C(=O)c3cccs3)cc2[nH]1 [nocodazole]
- mitotic index (fraction of cells that had condensed chromosomes) ([2]; cell lines that expressed wild-type Chfr): low
- mitotic index (fraction of cells that had condensed chromosomes) ([2]; cell lines with no detectable Chfr expression and U20S cells (variant chfr)): high
- centrosome separation [3]: inhibited
- Cyclin B/cdc2 activity [4]: high
- number of colony-forming units (CFUs) ([1]; DLD1-chfr cells): unaffected
- number of colony-forming units (CFUs) ([1]; DLD1-neo cells): decrease

Compound: Ubch8: E2 ubiquitin-conjugating enzyme
- ability of the E2 ubiquitin-conjugating enzyme to support ligase activity of Chfr [5]: did not function in this assay
